Measurements taken from patent US20030207872A1, “OMEGA-CARBOXYARYL SUBSTITUTED DIPHENYL UREAS AS RAF KINASE INHIBITORS” (BAYER CORPORATION, priority 2002, published 2003).

COC(=O)c1ccc(Oc2ccc(NC(=O)Nc3ccc(Cl)c(C(F)(F)F)c3)cc2)cn1 [Entry 55, N-(4-chloro-3-(trifluoromethyl)phenyl)-N′-(4-(2-(methoxycarbonyl)-5-pyridyloxy)phenyl) urea]
melting point: 228 to 230 °C
